For one molecule, Kd results are on record in BindingDB's records for doi:10.1021/bi9005896 (Albert Einstein College of Medicine, 2009).

By Kd is commonly meant the constant that tells how readily two partners part at equilibrium. A higher Kd goes with lower affinity.

For the assay, the target named is T1, Purine nucleoside phosphorylase (Homo sapiens, UniProt P00491).
T1 sequence (P00491 whole entry): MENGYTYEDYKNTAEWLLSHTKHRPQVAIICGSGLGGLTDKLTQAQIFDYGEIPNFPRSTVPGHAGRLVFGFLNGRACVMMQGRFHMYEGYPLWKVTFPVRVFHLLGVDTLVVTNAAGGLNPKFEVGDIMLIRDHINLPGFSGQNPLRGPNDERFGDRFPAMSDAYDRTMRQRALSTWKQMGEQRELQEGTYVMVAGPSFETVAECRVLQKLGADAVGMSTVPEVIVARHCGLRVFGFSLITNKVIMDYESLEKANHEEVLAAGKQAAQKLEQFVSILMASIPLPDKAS
Briefly: Inhibtion Assay. An excerpt:
Inhibition assay using human PNP.

`O=c1[nH]cnc2c(CN3CCC(O)C3)c[nH]c12` (stereo unspecified) [Immucillins, 11] came in with a Kd of 0.383 nM.
